By solubility is commonly meant how much of the substance goes into solution per volume. The pKa is the pH at which an ionisable group is half protonated. Read a low pKa as a group that gives up its proton readily. A word on the Papp: it is a coefficient for how fast a substance crosses the barrier. A low value points to poor permeation.

We go through 3 molecules from patent publication US20060004037A1, “Novel tricyclic compounds and related methods of treatment” (TransForm Pharmaceuticals, Inc., priority 2004, published 2006).

A short description of data set [1]: Dynamic vapor sorption. It counts as physicochemical.
A short description of data set [2]: Single excipient solubility screen. It counts as physicochemical. The source says: A single excipient screen was completed in an attempt to find an appropriate excipient for a liquid formulation of LSN 487355. […]
Data set [3] is described as follows: Hygroscopicity (VTI). Format: physicochemical. Particulars: free base form.
Data set [4] can be described thus: pKa. It counts as physicochemical. Particulars: free base form.
Data set [5] can be described thus: Caco-2 permeability. The conditions noted are these: human, Caco-2, free base form; for efflux ratio: read-out: B-A/A-B ratio. Format: in vitro ADME.
The test system of data set [6] is Caco-2. The data set is described as follows: Caco-2 permeability. Particulars: free base form. It counts as in vitro ADME. For orientation: Caco-2 monolayers are a common model of the intestinal barrier.
Data set [7] can be described thus: Solubility in various solvents/solubilizing mixtures. Format: physicochemical. An excerpt: The solubility of LSN 487355 in a variety of vehicles is illustrated in Table III.

≈ marks a conversion by molar mass, not a printed value. Structures can show the parent of a compound that is named as a salt. Some results are limits rather than exact numbers.

Take `Cc1onc2c1c(=O)n([C@H]1CCC[C@@H](CNC(=O)c3ccc(F)nc3)C1)c1cccc(Cl)c21` [LSN 487355 phosphate salt]: the Moisture sorption isotherm entry in data set [1] (dynamic vapor sorption) was “significant moisture sorption isotherm”. Moreover, the “Relative humidity at which deliquescence begins” value in data set [1] (dynamic vapor sorption) is 80-90 % RH. In addition, the “Crystallinity in dynamic vapor sorption” value in data set [1] (equilibrated under flowing nitrogen (0% RH)) is “loss of crystallinity”. The solubility in data set [2] (oil or lipid, excipient labrasol (FIG. 13)) was at least 20000 µg/mL; in data set [2] (organic solvent or mixture, excipient PEG-600 (FIG. 13)), at least 20000 µg/mL.
On to `Cc1onc2c1c(=O)n([C@H]1CCC[C@@H](CNC(=O)c3ccc(F)nc3)C1)c1cccc(Cl)c21` [LSN 487355], for which the “Hygroscopicity (VTI)” value in data set [3] is listed as “Non-hygroscopic”. The pKa in data set [4] stood at 3.77. This molecule displayed a Papp in data set [5] of 7.9 ×10⁻⁶ cm/s. In data set [5], the efflux ratio was 2.3. Further, the Permeability class entry in data set [6] is “Borderline high”. For the same molecule, the solubility in data set [7] (4% DMSO in deionized water, kinetic from dmso stock, 4% DMSO, compound dissolved in solvent first, then deionized water added) is 2 µg/mL (≈ 0.00427 mM); in data set [7] (5% N-methyl-2-pyrrolidone in deionized water, aqueous with cosolvent or surfactant or cyclodextrin, kinetic from dmso stock, 5% N-methyl-2-pyrrolidone, compound dissolved in solvent first, then deionized water added), 4 µg/mL (≈ 0.00853 mM); in data set [7] (10% DMSO in deionized water, aqueous with cosolvent or surfactant or cyclodextrin, kinetic from dmso stock, 10% DMSO, compound dissolved in solvent first, then deionized water added), 4 µg/mL (≈ 0.00853 mM); in data set [7] (10% N-methyl-2-pyrrolidone in deionized water, aqueous with cosolvent or surfactant or cyclodextrin, kinetic from dmso stock, 10% N-methyl-2-pyrrolidone, compound dissolved in solvent first, then deionized water added), 30 µg/mL (≈ 0.064 mM); in data set [7] (Capmul PG8, oil or lipid) it was 12000 to 15000 µg/mL (≈ 25.6 to 32 mM); in data set [7] (DMA, organic solvent or mixture) it was 208000 to 416000 µg/mL (≈ 444 to 887 mM). Moreover, the solubility was 1400 µg/mL (≈ 2.99 mM) in data set [7] (Ethanol, organic solvent or mixture); below 2000 µg/mL in data set [7] (Ethyl Oleate, oil or lipid); 3 µg/mL (≈ 0.0064 mM) in data set [7] (Ethyl acetate, organic solvent or mixture); above 2000 µg/mL in data set [7] (Glycofurol, organic solvent or mixture); above 2000 µg/mL in data set [7] (Labrafac Hydro WL 219, oil or lipid); below 2000 µg/mL in data set [7] (Labrafac Lipophile WL 1349, oil or lipid). In addition, the solubility in data set [7] (Labrafil M1944CS, oil or lipid) is below 2000 µg/mL; in data set [7] (Labrafil M2125CS, oil or lipid) it was below 2000 µg/mL; in data set [7] (Labrasol, oil or lipid), 4000 to 5000 µg/mL (≈ 8.53 to 10.7 mM); in data set [7] (NMP, organic solvent or mixture) it was above 563000 µg/mL; in data set [7] (Olive oil, oil or lipid), below 2000 µg/mL; in data set [7] (PEG 300, organic solvent or mixture), above 2000 µg/mL. Besides, the solubility was above 2000 µg/mL in data set [7] (Phosphal 50 PG, oil or lipid); above 2000 µg/mL in data set [7] (Phosphal 53 MCT, oil or lipid); below 2000 µg/mL in data set [7] (Propylene Glycol, organic solvent or mixture); below 2000 µg/mL in data set [7] (Safflower oil, oil or lipid); below 2000 µg/mL in data set [7] (Soybean oil, oil or lipid); at least 51000 µg/mL in data set [7] (organic solvent or mixture, DMSO, measured visually at about 50 mg/mL, all compound dissolved). Further, the solubility in data set [7] (organic solvent or mixture, N-methyl-2-pyrrolidone, measured visually at about 50 mg/mL, all compound dissolved) was at least 52000 µg/mL.
Consider `Cc1onc2c1c(=O)n([C@H]1CCC[C@@H](NC(=O)[C@@H](O)c3ccc(F)nc3)C1)c1cccc(Cl)c21` [LSN 509207], for which the “Hygroscopicity (VTI)” value in data set [3] is “Non-hygroscopic”. In addition, in data set [5], the Papp came out at 7.4 ×10⁻⁶ cm/s and the efflux ratio stood at 2.7. The Permeability class result in data set [6] was “Borderline high”.
